Results taken from US20080300298A1, “Honokiol Derivates For the Treatment of Proliferative Disorders” (priority 2005, published 2008).

Tested on: tumor cells isolated from patients with relapsed refractory MM
Experiment: cytotoxicity against patient MM cells (CD38high, flow cytometry)
Type: cell-based, human
Conditions: 8 ug/ml, 48 h, N=6, mean ±SD
Description: Assessment of HNK-induced cytotoxicity against patient MM cells: Cytotoxicity of HNK against fresh MM cells was determined as previously determined, see, for example, Mitsiades et al Cancer Cell. 2004; 5:221-230. Fresh MNCs separated from bone marrow samples derived from patients with MM were incubated with PE-conjugated anti-CD138 antibody and/or FITC-conjugated anti-CD38 antibody (BD Biosciences, San Diego, Calif.) for 30 minutes on ice and washed, followed by analysis using EPICS XL flow cytometer (Beckman Coulter, Hialeah, Fla.). A CD38^high fraction enriched for MM cells was determined in side and forward scatter panel in each case. The expression of CD138 on gated cells was also evaluated. After HNK-treatment for 48 h, cells were harvested and percentage of CD38^high cells with or without HNK-treatment was evaluated. […] Cells were stained with propidium iodide (PI; 50 μg/mL; Sigma, St Louis, Mo.), and cell cycle profile was determined by using the program M software on an EPICS XL flow cytometer (Beckman Coulter, Hialeah, Fla.). […] Fluorescence intensity of TUNEL and APO 2.7 staining was determined using on EPICS XL flow cytometer. Cytotoxicity was determined by trypan blue exclusion assay. […] Cell growth and induction of apoptosis were determined both by colorimetric assay and now cytometric detection of APO2.7 after 48 h treatment. […] DNA synthesis was measured by [^3H]-thymidine uptake. […]

C=CCc1ccc(O)c(-c2ccc(O)c(CC=C)c2)c1 [HNK, Honokiol]
percentage of CD38high cells compared to control cultures: 26.2±15.8%
